For 16 compounds, GI50 and TGI results are on record in PubChem BioAssay (NCI).

Assay in all cases: growth of human tumour cells (NCI), 48 h
The test system of test [1] is ACHN renal.
The test system of test [2] is BT-549 breast.
Test [3] deals with HS 578T breast.
The subject of test [4] is MALME-3M melanoma.
Test [5] deals with MCF7 breast.
Test [6] deals with MDA-MB-435.
The test system of test [7] is NCI-H23 lung.
The subject of test [8] is OVCAR-3 ovarian.
Test [9] has as its system OVCAR-5 ovarian.
Test [10] deals with SK-MEL-2 melanoma.

“And” between values parts separate entries of the source, which are not always exact repeats. Equal entries are not always repeated.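 Test compounds were applied to cells in 96-well plates for 48 hours at 5 doses. The concentration for 50% growth inhibition is given as GI50. TGI marks complete inhibition of growth.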

On to `COc1cc2nc3sc(C(=O)Nc4ccc(C(=O)OC(C)C)cc4)c(C(=O)Nc4ccc(Cl)cc4C)n3c(=O)c2cc1OC`, for which the GI50 was 23.8 µM in [1]; 1.67 µM in test [2]; 1.6 µM in test [3]; 0.0691 µM in test [4]; 14.1 µM in test [5]; 9.11 µM in test [6]. Moreover, the GI50 in [7] is 13.6 µM; in test [8] it was 2.66 µM; in test [9], 17.4 µM; in test [10], over 100 µM. Further, the TGI in test [1] is over 100 µM; in [2], 20 µM; in test [3], 7.7 µM; in test [4], 2.44 µM; in test [5], over 100 µM; in test [6] it was over 100 µM. The TGI was 40.5 µM in [7], 10.6 µM in test [8], 50.2 µM in [9] and over 100 µM in [10].
Turning to `C=C1C(=O)O[C@@H]2C[C@@]3(C)CCC[C@H](C)C3=C[C@H]12`, the TGI in test [1] came to 21.6 µM; in [2], 15.7 µM; in test [3], 19.1 µM; in test [4] it was 15.8 µM; in test [5], 17.2 µM; in test [6], 17.2 µM. Moreover, the TGI in [7] came to 17.5 µM; in test [8] it was 19.5 µM; in test [9] it was 31.4 µM; in test [10] it was 14.7 µM.
With `O=C1CC(c2ccc(N3CCOCC3)cc2)(c2ccsc2)NC(=O)C1Sc1ccccc1Cl` (stereo not given), the GI50 in [1] was 47.4 µM; in test [2] it was 16.7 µM; in test [3] it was 3.66 µM; in test [4], over 100 µM; in test [5], 57.2 µM; in test [6], 88.6 µM. The GI50 is 65.5 µM in test [7], 67 µM in test [8], over 100 µM in test [9] and 49.3 µM in test [10]. Moreover, the TGI in test [1], in test [2], in test [3], in test [4], in test [5] and in test [6] was over 100 µM each time. Moreover, the TGI in test [7], in [8], in test [9] and in [10] was over 100 µM in each case.
In the case of `CC[C@@H](C(=O)[C@@H](C)[C@@H](O)[C@H](C)[C@@H]1O[C@@H]([C@@H](CC)C(=O)O)CC[C@@H]1C)C1O[C@]2(C=CC(=O)[C@]3(CC[C@@](C)([C@H]4CC[C@](O)(CC)[C@H](C)O4)O3)O2)[C@H](C)C[C@@H]1C` (stereo not given in full), the GI50 is 1.33 µM in test [1]; 0.22 µM in [2]; 0.183 µM in test [3]; 0.163 µM in test [4]; 0.0669 µM in test [5]; 1.21 µM in [6]. Moreover, the GI50 in [7] is 0.0979 µM; in [8], 0.0547 µM; in [9] it was 0.734 µM; in test [10] it was 1.04 µM. The TGI came to 14.9 µM in test [1]; 13.1 µM in test [2]; 14.9 µM in test [3]; 0.774 µM in test [4]; 12.8 µM in [5]; 2.8 µM in [6]. The TGI in test [7] stood at 8.93 µM; in test [8], 12.5 µM; in [9], 21.5 µM; in [10] it was 7.03 µM.
As to `CC(C)=CCC[C@H](C)[C@@H]1CC[C@]2(C)C3CC[C@]4(OC4(C)C)C(CCCO)[C@]3(C)CC[C@@]12C` (stereo not given in full), the GI50 was 13.7 µM in test [1]; 26 µM in [2]; 24.4 µM in test [3]; 27.3 µM in test [4]; 18.1 µM in test [5]; 22.6 µM in [6]. The GI50 is 18.7 µM in test [7], 26.7 µM in [8] and 21 µM in test [9]. For the same compound, the TGI in test [1] came to 32.4 µM; in test [2] it was 51.7 µM; in [3] it was 58.5 µM; in test [4] it was 54.6 µM; in test [5] it was 43.6 µM; in test [6], 48.8 µM. The TGI in test [7] was found to be 40.2 µM; in test [8], 52.8 µM; in test [9], 47.1 µM.
On to `C1=Cc2ccccc2Nc2ccccc21`, for which the GI50 in [1] was over 100 µM; in test [2] it was over 100 µM; in test [3] it was over 100 µM; in [4] it was over 100 µM; in [5], 74.7 µM; in test [6], over 100 µM. Also, the GI50 in test [7], in test [8], in [9] and in test [10] was over 100 µM in each case. Moreover, the TGI in [1], in test [2], in test [3], in [4], in test [5] and in [6] was over 100 µM throughout. The TGI in test [7], in [8], in test [9] and in [10] was over 100 µM each time.
For `COc1cc(C(=O)c2ccc3c(c2)OCO3)cc(OC)c1OC`, the GI50 was 8.37 µM in [1]; 7.09 µM in [2]; 2.54 µM in [3]; 0.824 µM in [5]; 0.2 µM in [6]; 4.93 µM in test [7]. Also, the GI50 in test [8] was 1.4 µM; in test [9] it was 8.96 µM; in test [10], 2.53 µM. The TGI in test [1] was over 100 µM; in test [2], over 100 µM; in test [3] it was over 26.9 µM; in test [5], over 100 µM; in test [6], 0.502 µM; in test [7] it was over 100 µM. Besides, the figures for the TGI in test [8], in test [9] and in test [10] were 3.93 µM, over 100 µM and over 100 µM, respectively.
As to `COc1ccc2nc(-c3cc(-c4cc(OC)c(OC)c(OC)c4)n[nH]3)[nH]c2c1`, the GI50 in test [1] was 2.63 µM; in test [2] it was 0.899 µM; in test [3], 2.89 µM; in [4], 1.74 µM; in test [5] it was 2.15 µM; in test [6], 1.49 µM. Besides, the GI50 in [7] is 1.34 µM; in [8], 2.05 µM; in test [9], 3.03 µM. The TGI is 10.7 µM in test [1]; 3.31 µM in test [2]; 23.2 µM in test [3]; 6.4 µM in test [4]; 6.66 µM in [5]; 3.11 µM in test [6]. Also, the TGI was found to be 4.91 µM in test [7], 6.18 µM in test [8] and 12.6 µM in test [9].
For the compound `CC1=C(C(=O)Nc2ccc(F)c(Cl)c2)C(c2ccccc2Cl)NC(=S)N1` (stereo not given), the GI50 in [1] is 17.5 µM; in test [2], over 50 µM; in test [3] it was over 50 µM; in test [5], 21.7 µM; in test [6], 30.1 µM; in test [7], over 50 µM. The GI50 is 39.5 µM in test [8], over 50 µM in test [9] and 26.8 µM in test [10]. Besides, the TGI in test [1], in test [2], in test [3], in test [5], in [6] and in test [7] was over 50 µM throughout. Also, the TGI in test [8], in [9] and in test [10] was over 50 µM throughout.
For `CCCCCCCCCCCCCC(=O)O[C@H]1CC[C@H](NC(=O)[C@H](OC)[C@H](O)[C@@H](O)[C@H](O)/C=C/C(C)C)C(=O)NC1`, the GI50 was 12.8 µM in test [2]; 0.0112 µM in [3]; 0.00512 µM in test [5]; 0.00789 µM in test [6]; 0.00435 µM in [8]. Moreover, the TGI is 51.2 µM in [2]; 7.97 µM and 38.7 µM in test [4]; 8.64 µM and 22.6 µM in [5]; 51.2 µM and 18.2 µM in [6]; 4.77 µM and 0.5 µM in [7]; 10.5 µM and 17.9 µM in test [8]. Also, the TGI in test [9] was 51.2 µM and > 100 µM; in test [10] it was 51.2 µM and 9.49 µM.
Regarding `N#C/C(=C\c1ccc(-c2ccc(Cl)cc2)o1)C(=O)Nc1ncc(Cc2ccc(Cl)cc2)s1`, the GI50 was 1.59 µM in [1]; 2.34 µM in [2]; 1.59 µM in [3]; 2.51 µM in test [5]; 2.65 µM in test [6]; 1.82 µM in test [7]. In addition, the GI50 was 1.41 µM in test [8], 3.73 µM in test [9] and 3.26 µM in test [10]. Moreover, the TGI in test [1] is 3.43 µM; in [2], 10.4 µM; in test [3], 7.8 µM; in [5] it was over 100 µM; in [6], over 100 µM; in test [7] it was 4.17 µM. Moreover, the TGI in test [8] was 3.14 µM; in test [9], over 100 µM; in [10] it was 12.9 µM.
As to `CCOc1c(Br)cc(C2C(C(=O)OC)=CN(C)C=C2C(=O)OC)cc1OC`, the GI50 in test [1] was 77.6 µM; in test [2] it was 76 µM; in [3] it was 50.4 µM; in test [4], over 100 µM; in test [5], 40.6 µM; in [6], 37.3 µM. In addition, the GI50 in test [7] was 84.9 µM; in [8] it was 45.6 µM; in [9] it was over 100 µM. For the same compound, the TGI in [1], in test [2], in test [3], in [4], in test [5] and in test [6] was over 100 µM in each case. Besides, the TGI in test [7], in [8] and in test [9] was over 100 µM each time.
With `Oc1ccccc1-c1nn(CNc2cccc(Cl)c2)c(=S)o1`, the GI50 in [2] was 94.4 µM; in [3] it was 69.1 µM; in [5], 37.9 µM; in test [6] it was 77.1 µM; in [7], 22.8 µM; in test [8] it was 30.4 µM. For the same compound, the GI50 in test [9] and in test [10] was over 100 µM each time. Moreover, the TGI was over 100 µM in test [2]; over 100 µM in [3]; over 100 µM in test [5]; over 100 µM in test [6]; 71.8 µM in [7]; over 100 µM in test [8]. The TGI in [9] and in test [10] was over 100 µM each time.
With `C[C@@H]1CN(C(=O)c2ccc(NC(=O)c3cc(O[C@H](C)c4c(Cl)ccc(F)c4Cl)c(N)nn3)cc2)C[C@H](C)N1`, the GI50 is 5.14 µM in test [2]; 3.02 µM in [3]; 0.808 µM in test [4]; 0.567 µM in test [5]; 1.88 µM in [6]; 3.17 µM in test [7]. For the same compound, the GI50 in test [8] was 6.44 µM; in test [9] it was 2.76 µM; in test [10] it was 5.57 µM. Besides, the TGI in test [2] amounted to 16.5 µM; in [3] it was 21.9 µM; in test [4] it was 2.94 µM; in test [5] it was 12.6 µM; in test [6], 16.8 µM; in [7], 20.6 µM. Further, the TGI was 19 µM in test [8], 17.6 µM in test [9] and 19.6 µM in [10].
For the compound `Cc1nn(-c2nc3ccccc3s2)c(C)c1Oc1ccccc1O`, the GI50 in test [1] is 10.1 µM; in test [2] it was 12 µM; in test [3], 10.3 µM; in [4] it was 12.6 µM; in test [5], 4.19 µM; in test [6], 9.36 µM. The results for the GI50 in test [7], in test [8] and in [9] were 12.3 µM, 9.98 µM and 12.5 µM, respectively. Also, the TGI in test [1] came to 22.8 µM; in test [2] it was 25.5 µM; in test [3] it was 25.2 µM; in test [4], 25.6 µM; in [5], 24.6 µM; in [6], 21.3 µM. Further, the TGI came to 26.3 µM in test [7], 21.5 µM in test [8] and 25.7 µM in [9].
Consider `CC1CC2(C)ON=C(c3ccccc3)N2c2ccccc2S1` (stereo not given), for which the GI50 in test [1] is 32.8 µM; in [2] it was 24.8 µM; in test [3], 46.2 µM; in test [5] it was 31.4 µM; in test [6], 26 µM; in [7], 28.1 µM. In addition, the GI50 in test [8] is 94.1 µM; in test [9] it was 34.3 µM. The TGI in test [2] came to 67.4 µM; in test [5], 79 µM; in test [6], 93.3 µM; in [7], 97.5 µM.
